In general, IC50 refers to the concentration needed to halve the response being measured.

Sequence of SHP1 (P29350 whole entry, the tested form may be a part): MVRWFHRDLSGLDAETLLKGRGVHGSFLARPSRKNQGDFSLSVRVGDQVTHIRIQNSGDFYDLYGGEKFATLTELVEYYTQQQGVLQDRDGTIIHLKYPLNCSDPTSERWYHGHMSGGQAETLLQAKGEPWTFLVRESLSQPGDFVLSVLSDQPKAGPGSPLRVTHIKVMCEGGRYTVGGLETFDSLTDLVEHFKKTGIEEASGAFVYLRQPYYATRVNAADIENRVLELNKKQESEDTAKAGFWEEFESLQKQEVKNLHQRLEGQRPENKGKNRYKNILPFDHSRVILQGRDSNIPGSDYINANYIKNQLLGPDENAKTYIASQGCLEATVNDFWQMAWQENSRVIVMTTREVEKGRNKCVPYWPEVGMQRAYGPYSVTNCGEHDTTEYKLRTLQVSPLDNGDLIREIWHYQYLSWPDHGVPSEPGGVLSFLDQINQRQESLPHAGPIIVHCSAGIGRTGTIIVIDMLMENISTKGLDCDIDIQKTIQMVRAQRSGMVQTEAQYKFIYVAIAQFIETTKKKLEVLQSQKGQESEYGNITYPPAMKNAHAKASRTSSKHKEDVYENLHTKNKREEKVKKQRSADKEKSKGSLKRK

The experiment has as its target SHP1 (Homo sapiens, UniProt P29350). In words: SHP1 tyrosine phosphatase activity inhibition assay. The format is biochemical. The following applies: under the assay conditions. The source says: The invention further provides a method of identifying an inhibitor of a SHP1 tyrosine phosphatase activity, comprising the steps of: • 1) contacting a test compound with a SHP1 protein or an active fragment thereof; and • 2) determining the ability of the test compound to decrease the tyrosine phosphatase activity of SHP1.
A variety of assay methods can be used to determine the effect of the compound on the tyrosine phosphatase activity of SHP1. Some of the assay methods are disclosed in WO99/54450. For example, SHP1 phosphotase activity can be measured as a function of the ability of SHP1 to dephosphorylate a substrate, such as a phosphorylated JAK2. In particular, a phosphorylated peptide derived from JAK2. The dephosphorylation reaction can be monitored using a malachite green assay (Lanzetta et al., Anal Biochem. 1979, 100:95–7), which measures the release of inorganic phosphate from the substrate. Alternatively, SHP1 phosphotase activity can be measured in vivo by changes in cellular physiology affected by the SHP1 phosphotase activity, such as the inactivation of the EPOR signal transduction pathway.
Compounds of Formula I, II, and III were identified as inhibitors for SHP1 tyrosine phosphatase activity using methods of the invention.
As to `O=C1CSC(=S)N1CNc1ccc(NCN2C(=O)CSC2=S)cc1`, half-maximal inhibition (IC50) was put at 4.3 µM.

`O=C(O)/C=C/c1ccc(/C=C/C(=O)O)s1` yielded an IC50 of 22 µM. `CC(=O)Nc1ccc(/C=C2/SC(=S)NC2=O)cc1`: the IC50 was determined as 25.7 µM.

(Values after patent US7129267B2, “Methods for SHP1 mediated neuroprotection” (Janssen Pharmaceutica N.V., priority 2002, dated 2006).)
